Test [1] deals with wild type yeast (BY4741) and null mutants. In words: Yeast chronological aging, survival plating (clonogenicity). It is filed as cell-based. Particulars: for Pro-survival effect of spermidine application (compared to WT): 4 mM; for increase of survival: day 20, 4 mM spermidine. How it is done: Experiments were carried out in BY4741 (MATa his3Δ1 leu2Δ0 met15Δ0 ura3Δ0) and respective null mutants, obtained from Euroscarf. The double mutant Δiki3Δsas3 was generated according to Gueldener at al. (2002) Nucleic Acids Res. 30, e23 by using gene-specific URA3-knockout cassette, amplified by PCR with pUG72 as template (Lovaas & Carlin (1991) Free Radic Biol Med 11, 455-46.). […] All spe1 double mutant strains were obtained through mating and sporulation of BY4741 Δspe1 with the respective BY4742 ([…]) single mutant strains. Single and double mutant strains were verified for correct gene deletion by PCR and further checked for consistent auxotrophies. […] Strains were grown at 28° C. on SC medium containing 0.17% yeast nitrogen base (Difco), 0.5% (NH4)2SO4 and 30 mg/l of all amino acids (except 80 mg/l histidine and 200 mg/l leucine), 30 mg/l adenine, and 320 mg/l uracil with 2% glucose (SCD). […] To construct NHP6A-EGFP in pUG35-Ura (giving rise to a C-terminally tagged chimeric fusion protein under control of the met25-Promotor) the insert was amplified by PCR using genomic DNA from BY4741 as template and cloned into pUG35 using the EcoRI restriction site. The EGFP-ATG8 construct in pUG36-Ura (N-terminally tagged fusion protein) was similarly generated, using EcoRI and ClaI restriction sites.
In case of experiments with Δspe1 (FIG. 24 A-E), all strains were inoculated to 5·10^4 cells/ml. […] Therefore, for calculation of survival rates in experiments using Δiki3Δsas3, cell numbers of each sample were determined after two pulse of sonication on ice with Sonifier 250 from Benson (Duty Cycle: 35; Output Control: 2.5). Tests for apoptotic (TUNEL and Annexin V staining) and necrotic (PI staining) markers as well as markers for oxidative stress (DHE staining) were performed as described in Dod et al. (1982) Eur J Biochem 121, 401-405). For quantifications using flow cytometry (BD FACSAria), 30,000 cells were evaluated and analyzed with BD FACSDiva software. Spermidine (S4139, Sigma, Austria) and putrescine (P5780, Sigma, Austria; 1 mM final concentration) were added to stationary cultures at day 1 of the aging experiments (24 h after inoculation). 1 M aqueous stock solution of spermidine was stored in one use aliquots at −20° C. for no longer than 1 month. For adjustment of extracellular pH (pHex) to 6 (±0.5), the required amount of sodium hydroxide was added 30 h after inoculation. The pHex was maintained at approximately 6 (±0.5) throughout the aging.

Test [2] has as its system chronologically aged yeast cultures. In words: Oxygen consumption and fractionation of upper and lower (quiescent) cells. It is filed as cell-based. On the procedure:
Oxygen consumption was directly determined in 1.7 ml of chronologically aged yeast cultures transferred to a recording chamber by measuring the decline of oxygen concentration under anaerobic conditions using an oxygen electrode. Slopes were calculated over 15 min within the linear decrease of oxygen (minute 2-17) and normalized to living cells as determined by plating on YEPD agar plates.
Cells were cultured in SCD media as described in section on “Yeast Strains and Molecular Biology”. Percoll density gradient centrifugation was performed according to Allen et al. (Allen et al. (2006) J Cell Biol 174, 89-100). Cell counts for each fraction were determined using a CASY cell counter (Innovatis).

Test [3] has as its system pre-aged wild type yeast cells. In words: Stress of pre-aged yeast by heat shock or hydrogen peroxide. It counts as cell-based. To be noted: aged to day 24 with 4 mM spermidine; 4 h, 3 mM H2O2 or 42° C. How it is done: Survival of pre-aged wild type cells stressed for 4 h with hydrogen peroxide (3 mM H2O2) or heat shock (42° C.) compared to unstressed cells. Cells were chronologically aged until day 24 with or without addition of 4 mM spermidine. Data represent means±SEM (n=4). *p<0.05 and ***p<0.001. B) Free thiol group concentration (indicative of oxidative stress level) in blood serum of aging mice with or without (control) supplementation of drinking water with 0.3 and 3 mM spermidine for 200 days. Data represent means±SEM (n=3). **p<0.01. (C) Intracellular spermidine of mouse liver cells, obtained from the same mice used for RSH measurements presented in (B). Data represent means±SEM (n=3).

In test [4] the test system is histone acetyltransferase activity (HAT-activity). In words: HAT activity assay, yeast nuclear extract. To be noted: extracts of isolated yeast nuclei; spermidine 100 mM. It counts as biochemical. How it is done:
Yeast nuclei were isolated from 200 ml BY4741 wild type culture (grown for 24 h in SCD to stationary phase) as described previously (Buttner et al. (2007), Mol Cell 25, 233-246). Nuclear extract was prepared using nuclear extraction buffer from BioVision's Nuclear/Cytosol Fractionation Kit (Bio Vision, K266-25) without DTT addition, according to the manufacturer's protocol. Incubation time was doubled to 80 min with vortexing every 8 minutes. Protein concentration was determined via Bradford, giving yields of approximately 1 mg/ml protein. Yeast nuclear extract was immediately subjected to HAT activity assays.
For HAT-activity determination the commercially available HAT Activity Colorimetric Assay KIT from BioVision (Bio Vision K332-100) was employed. HAT assays were performed according to the manufacturer's protocol. […] Development of tetrazolium dye was measured by absorption at 440 nm using a GeniosPro plate reader (Tecan). Background readings were done with samples without NADH generating enzyme, giving the nuclear extracts unspecific background activity and eliminate any possible negative effects of spermidine addition on the assay itself. […] Calculated slopes of spermidine treated samples were compared to slopes of untreated samples which were set to a relative activity of 100%.

In test [5] the test system is general HAT activity in extracts of mammalian nuclei. In words: HAT activity assay, nuclear extract of HeLa-cells. It is filed as biochemical. Particulars: extracts of mammalian nuclei (data not shown); spermidine 100 mM. On the procedure: For HAT-activity determination the commercially available HAT Activity Colorimetric Assay KIT from BioVision (Bio Vision K332-100) was employed. HAT assays were performed according to the manufacturer's protocol. In brief, assays were performed with each 15 μg of yeast nuclear extract or nuclear extract of HeLa-cells (Bio Vision K332-100-4), respectively. Spermidine was added at a final concentration of 100 mM 15 minutes after assay initiation. Development of tetrazolium dye was measured by absorption at 440 nm using a GeniosPro plate reader (Tecan). Background readings were done with samples without NADH generating enzyme, giving the nuclear extracts unspecific background activity and eliminate any possible negative effects of spermidine addition on the assay itself. […] Regression coefficients of R^2>0.99 were obtained. Calculated slopes of spermidine treated samples were compared to slopes of untreated samples which were set to a relative activity of 100%.

The source of these data is patent US20120015901A1, “METHODS AND PREPARATIONS FOR PROTECTING CRITICALLY ILL PATIENTS” (priority 2009, published 2012).

Consider `NCCCCNCCCN` [spermidine], for which the “chronological life span of polyamine depleted cells” value in test [1] is “restored”. For the same compound, the “Pro-survival effect of spermidine application (compared to WT)” value is on record as “increased during” in test [1] (deletions image P00002, HDA2, increased in early aging (fast death of controls), BUT diminished or absent day 15 to 25); “not affected” in test [1] (single deletion of HDA1); “not affected” in test [1] (single deletions image P00004, RXT2, SDS3, SAP30); “not affected” in test [1] (single deletions image P00005, HDA3, HOS1, HOS2, HOS3, HOS4, RPD3, PHO23, SIR2, HST1, HST2, SET3, SIF2); “reduced” in test [1] (single deletions shown as image P00001, survival increased during early aging); “slightly reduced” in test [1] (single deletions shown as image P00003, during early aging (day 5 to 15)). For the same compound, the “increase in yeast life span” value in test [1] (BY4741 wild type, spermidine supplied at day 1 (4 mM)) is recorded as “up to 4 times”. Besides, the “ability of spermidine to extend the chronological life span” value in test [1] (deletion of SIR2) was “did not abrogate”. The “longevity upon spermidine application” value in test [1] (single deletion of HST1, HST2, HST3, HST4) was “did not affect longevity”. Besides, the increase of survival in test [1] (wild type cells) is reported as 5 fold; in test [1] (Δiki3Δsas3 cells) it was 1.3 fold. The “anti-aging (pro-survival) effect of spermidine” value in test [1] (Δiki3 and Δsas3 strains) is reported as “partially abrogated”. For the same compound, the “ROS accumulation and survival during aging” value in test [1] (Δsod2 mutant cells, 4 mM spermidine) is “temporarily protects from excessive ROS accumulation and loss of survival”. The oxygen consumption result in test [2] (day 20, 4 mM spermidine) is on record as “reduced their oxygen consumption”. In addition, in test [2] (gradient separation, 4 mM spermidine), the “quiescence status (upper and lower cell fractions)” value is “resemble the status of quiescence”. Moreover, the “resistance against stress inflicted by heat shock or H2O2 treatment” value in test [3] is recorded as “strong resistance”. Moreover, the “general HAT activity” value in test [4] and in test [5] was “efficiently inhibited” throughout.
